Measured values taken from patent publication US11970483B2, “Heterocyclic compound” (Takeda Pharmaceutical Company Limited, priority 2018, dated 2024).

Each compound was assayed against T1, human M1 receptor (hCHRM1) (Homo sapiens, UniProt P11229) (assay: Measurement of M1 receptor positive allosteric modulator (M1PAM) activity (IP1 HTRF, in presence of EC20 acetylcholine)). Settings: CHO-K1 cells stably expressing hCHRM1; acetylcholine at EC20 concentration; IP1 readout.
T1 construct: expressed in transfected cells
T1 sequence (P11229 1-460): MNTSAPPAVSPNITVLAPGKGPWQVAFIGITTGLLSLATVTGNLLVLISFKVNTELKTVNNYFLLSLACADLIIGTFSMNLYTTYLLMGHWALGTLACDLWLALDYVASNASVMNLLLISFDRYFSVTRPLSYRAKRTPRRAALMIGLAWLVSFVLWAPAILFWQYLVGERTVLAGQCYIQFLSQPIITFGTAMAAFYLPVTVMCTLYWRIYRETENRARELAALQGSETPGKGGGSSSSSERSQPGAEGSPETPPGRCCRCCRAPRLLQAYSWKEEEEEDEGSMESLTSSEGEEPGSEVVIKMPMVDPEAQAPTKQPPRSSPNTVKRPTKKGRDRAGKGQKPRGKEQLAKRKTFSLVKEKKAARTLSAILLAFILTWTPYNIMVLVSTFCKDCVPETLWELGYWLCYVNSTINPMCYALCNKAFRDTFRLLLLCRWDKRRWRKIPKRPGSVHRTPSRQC
Format: cell-based
Method: Measurement of M1 Receptor Positive Allosteric Modulator (M1PAM) Activity
The activity of a test compound in the presence of acetylcholine at an EC20 concentration affording about 20% action of the maximum activity was measured as PAM activity.
The method therefor is as follows. To a 384-well white plate (Greiner) was added 4 μL of the test compound diluted with IP1 Stimulation buffer (CisBio) containing 0.1% fatty acid-free BSA containing 80 nM acetylcholine. Freeze stock of CHO-K1 cells stably expressing human M1 receptor (hCHRM1) was prepared with IP1 Stimulation buffer (CisBio) containing 0.1% fatty acid-free BSA, 4 μL thereof was added (10,000 cells/well) and the mixture was cultured in a 5% CO2 incubator at 37° C. for 1 hr. 4 μL of a solution (CisBio) containing IP1-d2 and Anti-IP1-cryptate Tb conjugate was added, the mixture was incubated at room temperature for 1 hr, and the time-resolved fluorescence signal was measured on an Envision plate reader (PerkinElmer). The activity (%) of the test compound was calculated by defining the value when acetylcholine was added at the final concentration of 20 μM as 100% and the value when DMSO was added instead of the test compound under acetylcholine-free conditions as 0%, and the EC50 value was calculated as a value of 50% of the concentration dependence curve of the test compound.

`Cc1c(Cc2ccc(-c3cnn(C)c3)nc2)cc(C(=O)N[C@H]2CCOC[C@@H]2O)c2c1CCO2` [Example 2, 1,5-anhydro-2,3-dideoxy-3-[{4-methyl-5-{[6-(1-methyl-1H-pyrazol-4-yl)pyridin-3-yl]methyl}-2,3-dihydro-1-benzofuran-7-carbonyl)amino]-L-threo-pentitol] and `Cc1nn(C)cc1-c1ccc(Cc2cc(C(=O)N[C@H]3CCOC[C@@H]3O)c3c(c2C)CCO3)cn1` [Example 3, 1,5-anhydro-2,3-dideoxy-3-[(5-{[6-(1,3-dimethyl-1H-pyrazol-4-yl)pyridin-3-yl]methyl}-4-methyl-2,3-dihydro-1-benzofuran-7-carbonyl)amino]-L-threo-pentitol] are within 1.5-fold of each other in EC50: 33 nM for the first, 46 nM for the second.

Compared with `CNC(=O)c1ccc(Cc2cc(C(=O)N[C@H]3CCOC[C@@H]3O)c3c(c2C)CCO3)cn1` [Example 36, 1,5-anhydro-2,3-dideoxy-3-[(4-methyl-5-{[6-(methylcarbamoyl)pyridin-3-yl]methyl}-2,3-dihydro-1-benzofuran-7-carbonyl)amino]-L-threo-pentitol], `CNC(=O)c1ccc(Cc2cc(C(=O)N[C@H]3CCOC[C@@H]3O)c3c(c2C)CCO3)cc1F` [Example 21, 1,5-anhydro-2,3-dideoxy-3-[(5-{[3-fluoro-4-(methylcarbamoyl)phenyl]methyl)-4-methyl-2,3-dihydro-1-benzofuran-7-carbonyl)amino]-L-threo-pentitol] is 5.4-fold lower in EC50: 130 nM for the first, 24 nM for the second. The second is the more potent here.

First: Cc1c(Cc2ccc(C(N)=O)cc2)cc(C(=O)N[C@H]2CCOC[C@@H]2O)c2c1CCO2 [Example 5, 1,5-anhydro-3-({5-[(4-carbamoylphenyl)methyl]-4-methyl-2,3-dihydro-1-benzofuran-7-carbonyl}amino)-2,3-dideoxy-L-threo-pentitol]
Second: Cc1c(Cc2ccc(C(=O)NC3CC3)c(F)c2)cc(C(=O)N[C@H]2CCOC[C@@H]2O)c2c1CCO2 [Example 31, 1,5-anhydro-3-[(5-{[4-(cyclopropylcarbamoyl)-3-fluorophenyl]methyl}-4-methyl-2,3-dihydro-1-benzofuran-7-carbonyl)amino]-2,3-dideoxy-L-threo-pentitol]
The EC50 of the first is 3.1-fold lower: 12 nM for the first, 37 nM for the second.

Compared with `Cc1c(Cc2ccc(C(=O)NC[C@@H]3CCCO3)c(F)c2)cc(C(=O)N[C@H]2CCOC[C@@H]2O)c2c1CCO2` [Example 30, 1,5-anhydro-2,3-dideoxy-3-[(5-{[3-fluoro-4-({[(2S)-oxolan-2-yl]methyl}carbamoyl)phenyl]methyl}-4-methyl-2,3-dihydro-1-benzofuran-7-carbonyl)amino]-L-threo-pentitol], `Cc1c(Cc2ccc(C(=O)NCCF)c(F)c2)cc(C(=O)N[C@H]2CCOC[C@@H]2O)c2c1CCO2` [Example 35, 1,5-anhydro-2,3-dideoxy-3-{[5-({3-fluoro-4-[(2-fluoroethyl)carbamoyl]-phenyl}methyl)-4-methyl-2,3-dihydro-1-benzofuran-7-carbonyl]amino}-L-threo-pentitol] is 3.5-fold lower in EC50: 56 nM for the first, 16 nM for the second.
